Test results published in paper PMC3772510 (ChemMedChem, 2011).
Converted amounts (≈) assume the structure as drawn.

Assay: aqueous solubility
Format: physicochemical

aqueous solubility: 100 µg/mL (≈ 172 µM)
SMILES: COc1ccc(C2=N[C@@H](c3ccc(Cl)cc3)[C@@H](c3ccc(Cl)cc3)N2C(=O)N2CCNC(=O)C2)c(OC(C)C)c1 [Nutlin-3a, nutlin-3a]
